In patent publication US6825230B2, “Spiro and dispiro 1,2,4-trixolane antimalarials” (Medicines for Malaria Venture MMV, priority 2002, dated 2004):
≈ marks a conversion by molar mass, not a printed value. Where two headings read alike, the source gives them in different places.

Columns and labels:
[1] = tested on: ANKA strain of P. berghei; assay: Single dose STI in vivo screen in infected mice; set-up: species or system Plasmodium berghei; conditions: for Survival (days) 10 mg/kg po: single 10 mg/kg po in 3% ethanol and 7% Tween 80; for Survival (days) 10 mg/kg po / Survival (days) 10 mg/kg SSV po / Survival (days) 10 mg/kg sc: untreated 6-7 days; for Activity (%) 10 mg/kg po: single 10 mg/kg po in 3% ethanol and 7% Tween 80 on day 1 post-infection; for Activity (%) 10 mg/kg po / Activity (%) 10 mg/kg SSV po / Activity (%) 10 mg/kg sc / Activity (%) 3 mg/kg SSV po: percent reduction in parasitemia on day 3; for Survival (days) 10 mg/kg SSV po: single 10 mg/kg po in SSV; for Activity (%) 10 mg/kg SSV po: single 10 mg/kg po in standard suspending vehicle (SSV) on day 1 post-infection; for Survival (days) 10 mg/kg sc: single 10 mg/kg sc in 3% ethanol and 7% Tween 80; for Activity (%) 10 mg/kg sc: single 10 mg/kg sc in 3% ethanol and 7% Tween 80 on day 1 post-infection; for Survival (days) 3 mg/kg SSV po / Activity (%) 3 mg/kg SSV po: single 3 mg/kg po in SSV
Description: In the single dose STI in vivo screen, Moro SPF or NMRI mice infected with the ANKA strain of P. berghei (groups of three mice) were treated on day one post-infection with trioxolanes dissolved or suspended in 3% ethanol and 7% Tween 80. […] SSV consists of 0.5% w/v CMC, 0.5% v/v benzyl alcohol, 0.4% v/v Tween 80, and 0.9% w/v sodium chloride in water. Antimalarial activity was measured by percent reduction in parasitemia on day three post-infection and survival times compared to an untreated control group. Survival to day 30 post-infection is considered to be a cure. […] Other factors influencing antimalarial activity include the stability of carbon radicals formed by β-scission subsequent to the initial electron transfer to the peroxide bond and the influence of steric effects remote from the peroxide bond on the interactions between carbon radicals and potential drug targets.
Moro NMRI male mice (Fu Albino specific pathogen free) weighing 18±2 g were infected intravenously (i.v.) with 2×10^7 P. berghei ANKA strain-infected erythrocytes from donor mice on day 0 of the experiment. From donor mice with circa 30% parasitemia, heparinized blood was taken and diluted in physiological saline to 10^8 parasitized erythrocytes per ml. An aliquot (0.2 ml) of this suspension was injected i.v. into experimental and control groups of mice. […] Throughout the experiments, mice were kept in groups of three or five animals in Makrolon type II cages in an air-conditioned animal room at 22 to 23° C.
They were administered per os (p.o.) in a total volume of 0.01 ml per gram of mouse. The activity of the compound was determined by a variety of methods outlined in subsequent sections. Survival time was also recorded, and survival to day 30 post-infection was considered to be a cure.

[2] = tested on: chloroquine-sensitive NF54 strain of P. falciparum; assay: In vitro antimalarial semiautomated microdilution assay ([3H]-hypoxanthine incorporation), NF54 strain; type: cell-based, Plasmodium falciparum; conditions: Plasmodium falciparum
Description: (§1) Various OZ compounds were tested by the semiautomated microdilution assay against intraerythrocytic forms of Plasmodium falciparum derived from asynchronous stock cultures.
(§2) Fifty percent inhibitory concentration (IC50) were estimated by Logit regression analysis.

[3] = tested on: chloroquine-resistant K1 strain of P. falciparum; assay: In vitro antimalarial semiautomated microdilution assay ([3H]-hypoxanthine incorporation), K1 strain; type: cell-based, Plasmodium falciparum; conditions: Plasmodium falciparum
Description: as §1, §2

[4] = NF54, 72 h, read-out: IC50 (ng/ml) NF54, chloroquine-sensitive NF54 strain, 72 h incubation
[5] = K1, 72 h, read-out: IC50 (ng/ml) K1, chloroquine-resistant K1 strain, 72 h incubation
[6] = chloroquine-resistant K1 strain, 72 h incubation, read-out: IC50 (ng/ml) K1

O=C(O)C1(c2ccccc2)CCC2(CC1)OOC1(O2)C2CC3CC(C2)CC1C3 (stereo not drawn) [OZ99]
Survival (days) 10 mg/kg po [1]: 6.3 days | Activity (%) 10 mg/kg po [1]: 30% | Survival (days) 10 mg/kg SSV po [1]: 5.7 days | Activity (%) 10 mg/kg SSV po [1]: 40% | Survival (days) 10 mg/kg sc [1]: 6.3 days | Activity (%) 10 mg/kg sc [1]: 36% | IC50 [2, 4]: 27 ng/mL (≈ 70.2 nM) | IC50 [3, 5]: 77 ng/mL (≈ 200 nM)

OC1(c2nccs2)CCC2(CC1)OOC1(O2)C2CC3CC(C2)CC1C3 (stereo not drawn) [OZ247]
Survival (days) 10 mg/kg po [1]: 6.3 days | Activity (%) 10 mg/kg po [1]: 57% | Survival (days) 10 mg/kg SSV po [1]: 6.0 days | Activity (%) 10 mg/kg SSV po [1]: 27% | Survival (days) 10 mg/kg sc [1]: 9.0 days | Activity (%) 10 mg/kg sc [1]: 99.85% | IC50 ([2]; chloroquine-sensitive NF54 strain, 72 h incubation, read-out: IC50 (ng/ml) NF54): 2.3 ng/mL (≈ 6.33 nM) | IC50 [3, 6]: 1.8 ng/mL (≈ 4.95 nM)

NCC1(c2ccccc2)CCC2(CC1)OOC1(O2)C2CC3CC(C2)CC1C3 (stereo not drawn) [OZ117]
Survival (days) 10 mg/kg po [1]: 7.0 days | Activity (%) 10 mg/kg po [1]: 95% | Survival (days) 10 mg/kg SSV po [1]: 7.7 days | Activity (%) 10 mg/kg SSV po [1]: 96% | Survival (days) 10 mg/kg sc [1]: 8.7 days | Activity (%) 10 mg/kg sc [1]: 99.94% | IC50 [2, 4]: 1.2 ng/mL (≈ 3.25 nM) | IC50 [3, 5]: 2.1 ng/mL (≈ 5.68 nM)

NCC[C@H]1CC[C@]2(CC1)OOC1(O2)C2CC3CC(C2)CC1C3 (stereo partly drawn) [OZ229]
IC50 [2, 4]: 0.23 ng/mL (≈ 0.748 nM) | IC50 [3, 5]: 0.24 ng/mL (≈ 0.781 nM)

NC(=O)CCNC[C@H]1CC[C@]2(CC1)OO[C@]1(O2)C2CC3CC(C2)CC1C3 [OZ319]
IC50 [2, 4]: 0.91 ng/mL (≈ 2.5 nM) | IC50 [3, 5]: 0.41 ng/mL (≈ 1.12 nM)

O=C(NC[C@H]1CC[C@]2(CC1)OO[C@]1(O2)C2CC3CC(C2)CC1C3)c1cccnc1 [OZ273]
Survival (days) 3 mg/kg SSV po [1]: 7.2 days | Activity (%) 3 mg/kg SSV po [1]: 64% | Survival (days) 10 mg/kg SSV po [1]: 11.7 days | Activity (%) 10 mg/kg SSV po [1]: 99.58% | IC50 [3, 6]: 0.97 ng/mL (≈ 2.43 nM)

CN(C)C(=O)N1CCC2(CC1)OOC1(O2)C2CC3CC(C2)CC1C3 (stereo not drawn) [OZ133, Adamantane-2-spiro-3′-8′-[(dimethylamino)carbonyl]-1′,2′,4′-trioxa-8′-azaspiro[4.5]decane]
Survival (days) 10 mg/kg po [1]: 7.0 days | Activity (%) 10 mg/kg po [1]: 94% | Survival (days) 10 mg/kg SSV po [1]: 7.3 days | Activity (%) 10 mg/kg SSV po [1]: 97% | Survival (days) 10 mg/kg sc [1]: 7.0 days | Activity (%) 10 mg/kg sc [1]: 72% | IC50 [3, 5]: 0.7 ng/mL (≈ 2.08 nM)

N[C@H]1CC[C@]2(CC1)OOC1(O2)C2CC3CC(C2)CC1C3 (stereo partly drawn) [OZ137]
Survival (days) 10 mg/kg po [1]: 5.7 days | Activity (%) 10 mg/kg po [1]: 0% | Survival (days) 10 mg/kg SSV po [1]: 6.3 days | Activity (%) 10 mg/kg SSV po [1]: 6% | Survival (days) 10 mg/kg sc [1]: 7.0 days | Activity (%) 10 mg/kg sc [1]: 61% | IC50 [2, 4]: 18 ng/mL (≈ 64.4 nM)

O=C1CCC(=O)N1C[C@H]1CC[C@]2(CC1)OOC1(O2)C2CC3CC(C2)CC1C3 (stereo partly drawn) [OZ197]
IC50 [2, 4]: 2 ng/mL (≈ 5.33 nM) | IC50 [3, 5]: 1 ng/mL (≈ 2.66 nM)

O=CNCC(=O)NC[C@H]1CC[C@]2(CC1)OO[C@]1(O2)C2CC3CC(C2)CC1C3 [OZ322]
Survival (days) 3 mg/kg SSV po [1]: 9.4 days | Activity (%) 3 mg/kg SSV po [1]: 61% | Survival (days) 10 mg/kg SSV po [1]: 10.0 days | Activity (%) 10 mg/kg SSV po [1]: 98% | IC50 [3, 6]: 0.9 ng/mL (≈ 2.38 nM)

CC(C)N(C(=O)N1CCC2(CC1)OOC1(O2)C2CC3CC(C2)CC1C3)C(C)C (stereo not drawn) [OZ194, Adamantane-2-spiro-3′-8′-[(diisopropylamino)carbonyl]-1′,2′,4′-trioxa-8′-azaspiro[4.5]decane]
Survival (days) 10 mg/kg po [1]: 8.3 days | Activity (%) 10 mg/kg po [1]: 87% | Survival (days) 10 mg/kg SSV po [1]: 8.0 days | Activity (%) 10 mg/kg SSV po [1]: 73% | Survival (days) 10 mg/kg sc [1]: 20.3 days | Activity (%) 10 mg/kg sc [1]: 99.95% | IC50 [2, 4]: 6.6 ng/mL (≈ 16.8 nM)

CC(C)(C)CC(=O)N[C@H]1CC[C@]2(CC1)OOC1(O2)C2CC3CC(C2)CC1C3 (stereo partly drawn) [OZ195]
IC50 [2, 4]: 3.7 ng/mL (≈ 9.8 nM) | IC50 [3, 5]: 2.2 ng/mL (≈ 5.83 nM)
